# Where a name gives a salt, the structure may show the parent alone.
# Columns and labels:
# [1] = molecular target: T1, human recombinant 5-HT6 receptor (Homo sapiens, UniProt P50406); assay: Affinity for 5-HT6 receptor binding sites (competitive radioligand binding, [3H]LSD); conditions: membranes of HEK-293 with h5-HT6, * = tested as hydrochloride salt
# T1 construct: expressed in transfected cells; host or cells: HEK-293
# Method in brief: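 Membranes from HEK-293 cells stably expressing human 5-HT6, competition against [3H]LSD; nonspecific binding defined with 1 μM clozapine. DMSO ≤0.4% final. Inhibition curves fitted by nonlinear regression.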
# [2] = molecular target: T2, rat 5-HT7a receptor (Rattus norvegicus, UniProt P32305); assay: Affinity for 5-HT7 receptor binding sites (competition radioligand binding, [3H]5-CT); conditions: membranes of HEK-293 cells with rat 5-HT7a; 1 nM [3H]5-CT; * = tested as hydrochloride salt
# T2 construct: expressed in transfected cells; host or cells: HEK-293
# Experimental: Stock drug solutions (10 mM) were prepared in DMSO (the final assay concentration of DMSO not exceeding 0.4%). Drug dilutions were prepared in assay buffer.
# Sigmoidal inhibition curves were generated and fitted by nonlinear regression analysis (GraphPad Prism).
# 1. Affinity for 5-HT7 Receptor Binding Sites
# The affinity of the compounds described in this invention for the 5-HT7 receptor binding site was evaluated by single competition radioligand binding assay. The assay was performed on membranes prepared from HEK-293 cells that had been subjected to stable transfection with the rat 5-HT7a receptor (GB: NM022938). Cells were scraped from the culture plates, suspended in Tris-HCl 50 mM pH 7.5 and collected through centrifugation (1000 rpm for 5 min). The cell pellets were homogenized (Polytron, 15 s, setting 5) in 50 mM Tris-HCl (pH 7.5), 5 mM EDTA. Following centrifugation (15,000 rpm for 25 min), membranes (135 μg protein/mL) were resuspended in the same buffer and incubated for 60 min at RT with 1 nM [^3H]5-CT in the presence of increasing concentration of test compounds. Nonspecific binding was defined in the presence of 10 μM 5-HT. Incubation was stopped by rapid filtration using the cell harvester (Packard). Radioactivity was counted in a TopCount-NXT (Packard). Experiments were conducted in triplicate.
# [3] = molecular target: T3, human recombinant 5-HT2C receptor (Homo sapiens, UniProt P28335); assay: Affinity for 5-HT2C receptor binding sites (competitive radioligand binding, [3H]mesulergine); conditions: membranes of CHO with h5-HT2C, * = tested as hydrochloride salt
# T3 construct: expressed in transfected cells; host or cells: CHO
# T3 sequence (P28335 33-458): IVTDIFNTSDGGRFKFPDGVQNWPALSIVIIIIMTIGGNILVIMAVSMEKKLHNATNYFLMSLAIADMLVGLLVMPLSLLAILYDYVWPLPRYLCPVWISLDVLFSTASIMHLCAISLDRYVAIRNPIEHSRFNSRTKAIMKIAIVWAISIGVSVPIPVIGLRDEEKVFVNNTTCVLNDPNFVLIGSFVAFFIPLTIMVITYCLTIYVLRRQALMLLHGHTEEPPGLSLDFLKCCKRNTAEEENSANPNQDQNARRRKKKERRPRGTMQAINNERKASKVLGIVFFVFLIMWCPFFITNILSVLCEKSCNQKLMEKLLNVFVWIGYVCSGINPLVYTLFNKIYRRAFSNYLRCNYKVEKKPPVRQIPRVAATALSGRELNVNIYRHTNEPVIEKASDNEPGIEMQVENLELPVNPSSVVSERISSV
# Method in brief: (§1)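 Membranes from NIH3T3 cells stably expressing h5-HT2A or CHO cells stably expressing h5-HT2B/h5-HT2C; [3H]ketanserin used for 5-HT2A, [3H]mesulergine for 5-HT2B/2C. Compounds from 10 mM DMSO stocks, final DMSO ≤0.4%. Affinity from sigmoidal inhibition curves fitted by nonlinear regression.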
# [4] = molecular target: T4, human recombinant 5-HT2B receptor (Homo sapiens, UniProt P41595); assay: Affinity for 5-HT2B receptor binding sites (competitive radioligand binding, [3H]mesulergine); conditions: membranes of CHO with h5-HT2B, * = tested as hydrochloride salt
# T4 construct: expressed in transfected cells; host or cells: CHO
# Method in brief: as §1
# [5] = molecular target: T5, human recombinant 5-HT2A receptor (Homo sapiens, UniProt P28223); assay: Affinity for 5-HT2A receptor binding sites (competitive radioligand binding, [3H]ketanserin); conditions: membranes of NIH3T3 with h5-HT2A, * = tested as hydrochloride salt
# T5 construct: expressed in transfected cells; host or cells: NIH3T3
# Method in brief: as §1
# T5 sequence (P28223 whole entry): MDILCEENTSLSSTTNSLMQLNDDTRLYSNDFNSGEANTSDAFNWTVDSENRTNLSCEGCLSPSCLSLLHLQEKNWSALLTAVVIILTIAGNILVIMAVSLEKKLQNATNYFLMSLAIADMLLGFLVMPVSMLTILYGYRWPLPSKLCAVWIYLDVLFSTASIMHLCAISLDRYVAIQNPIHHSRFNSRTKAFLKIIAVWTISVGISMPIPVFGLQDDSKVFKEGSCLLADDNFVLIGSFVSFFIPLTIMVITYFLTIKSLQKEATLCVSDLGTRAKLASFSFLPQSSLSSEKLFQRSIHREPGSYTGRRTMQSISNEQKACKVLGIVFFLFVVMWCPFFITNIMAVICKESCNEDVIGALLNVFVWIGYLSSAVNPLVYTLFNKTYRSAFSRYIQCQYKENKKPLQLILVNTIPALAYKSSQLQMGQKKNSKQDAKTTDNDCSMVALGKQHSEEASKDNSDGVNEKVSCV
# T2 sequence (P32305 whole entry): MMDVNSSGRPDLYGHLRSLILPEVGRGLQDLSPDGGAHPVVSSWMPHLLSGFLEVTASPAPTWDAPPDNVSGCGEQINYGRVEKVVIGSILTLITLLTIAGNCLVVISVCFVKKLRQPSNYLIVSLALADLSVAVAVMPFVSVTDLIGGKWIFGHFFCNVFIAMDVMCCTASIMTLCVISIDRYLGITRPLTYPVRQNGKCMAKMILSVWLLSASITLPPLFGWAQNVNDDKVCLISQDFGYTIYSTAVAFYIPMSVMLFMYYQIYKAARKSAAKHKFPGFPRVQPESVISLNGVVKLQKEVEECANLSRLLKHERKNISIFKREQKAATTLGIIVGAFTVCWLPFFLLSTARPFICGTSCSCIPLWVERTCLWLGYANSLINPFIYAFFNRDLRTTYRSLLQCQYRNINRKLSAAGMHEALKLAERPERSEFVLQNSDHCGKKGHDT
# T4 sequence (P41595 whole entry): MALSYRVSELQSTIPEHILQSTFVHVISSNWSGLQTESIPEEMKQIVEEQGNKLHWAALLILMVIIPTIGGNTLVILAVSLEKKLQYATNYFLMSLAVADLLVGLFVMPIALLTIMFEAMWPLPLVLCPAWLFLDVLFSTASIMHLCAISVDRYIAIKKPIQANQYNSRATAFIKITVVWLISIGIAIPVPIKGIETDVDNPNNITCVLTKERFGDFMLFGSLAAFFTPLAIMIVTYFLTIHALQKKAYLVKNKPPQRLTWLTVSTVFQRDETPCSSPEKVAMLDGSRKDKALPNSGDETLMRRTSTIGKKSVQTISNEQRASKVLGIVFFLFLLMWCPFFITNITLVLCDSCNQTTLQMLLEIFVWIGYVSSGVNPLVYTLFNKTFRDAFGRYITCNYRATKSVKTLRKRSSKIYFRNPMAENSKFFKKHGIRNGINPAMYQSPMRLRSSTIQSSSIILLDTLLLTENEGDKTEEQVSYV
# T1 sequence (P50406 whole entry): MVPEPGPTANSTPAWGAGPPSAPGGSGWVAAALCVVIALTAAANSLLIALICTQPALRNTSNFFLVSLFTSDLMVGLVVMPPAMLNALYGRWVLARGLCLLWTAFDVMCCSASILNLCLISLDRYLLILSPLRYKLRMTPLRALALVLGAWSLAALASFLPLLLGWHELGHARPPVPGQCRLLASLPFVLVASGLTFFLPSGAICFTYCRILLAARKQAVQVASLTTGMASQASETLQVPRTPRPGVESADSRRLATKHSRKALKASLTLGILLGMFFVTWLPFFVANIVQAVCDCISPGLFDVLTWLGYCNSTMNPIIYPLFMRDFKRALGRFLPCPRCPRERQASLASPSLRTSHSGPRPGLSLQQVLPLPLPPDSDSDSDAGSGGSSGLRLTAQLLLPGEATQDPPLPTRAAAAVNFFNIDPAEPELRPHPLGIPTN
SMILES,Ki [1] [nM],Ki [2] [nM],Ki [3] [nM],Ki [4] [nM],Ki [5] [nM]
CCN(CC)c1nc2c(c(-c3ccc(C)cc3)n1)CCCNC2 [Example 2],300,220,430,25,170
"CC1CCCCN1c1nc2c(c(-c3ccc(F)cc3)n1)CCCNC2 (stereo not shown) [Example 6, 4-(4-Fluoro-phenyl)-2-(2-methyl-piperidin-1-yl)-6,7,8,9-tetrahydro-5H-pyrimido[4,5-c]azepine]",310,> 10000,1000,200,200
"CCN(CC)c1nc2c(c(-c3ccc(F)cc3)n1)CCNCC2 [Example 9, Diethyl-[4-(4-fluoro-phenyl)-6,7,8,9-tetrahydro-5H-pyrimido[4,5-d]azepin-2-yl]-amine hydrochloride]",84,29,40,7,20
"CCN(CC)c1nc2c(c(-c3ccncc3)n1)CCNCC2 [Example 10, Diethyl-(4-pyridin-4-yl-6,7,8,9-tetrahydro-5H-pyrimido[4,5-d]azepin-2-yl)-amine hydrochloride]",1460,1200,> 10000,50,500
"CCN(CC)c1nc2c(c(-c3ccc(C#N)cc3)n1)CCNC2 [Example 30, 4-(2-Diethylamino-5,6,7,8-tetrahydro-pyrido[3,4-d]pyrimidin-4-yl)-benzonitrile]",3720,300,1400,60,48
"CCN(CC)c1nc2c(c(-c3ccc(OC)cc3)n1)CCNC2 [Example 28, Diethyl-[4-(4-methoxy-phenyl)-5,6,7,8-tetrahydro-pyrido[3,4-d]pyrimidin-2-yl]-amine]",1510,130,280,15,70
"CCN(CC)c1nc2c(c(-c3ccc(F)cc3)n1)CCCNC2 [Example 1, Diethyl-[4-(4-fluoro-phenyl)-6,7,8,9-tetrahydro-5H-pyrimido[4,5-c]azepin-2-yl]-amine]",2260,470,300,32,20
"Cc1ccc(-c2nc(N3CCCC3)nc3c2CN(C)CC3)cc1 [Example 52, 6-Methyl-2-pyrrolidin-1-yl-4-p-tolyl-5,6,7,8-tetrahydro-pyrido[4,3-d]pyrimidine]",977,> 10000,500,500,120
"CCN(CC)c1nc2c(c(-c3ccc(C)cc3)n1)CCNC2 [Example 26, Diethyl-(4-p-tolyl-5,6,7,8-tetrahydro-pyrido[3,4-d]pyrimidin-2-yl)-amine]",316,100,200,13,7
"CC1CCCN1c1nc2c(c(-c3ccc(F)cc3)n1)CNCC2 (stereo not shown) [Example 38, 4-(4-Fluoro-phenyl)-2-(2-methyl-pyrrolidin-1-yl)-5,6,7,8-tetrahydro-pyrido[4,3-d]pyrimidine hydrochloride]",1950,> 10000,65,50,1.9
"CC1CCCCN1c1nc2c(c(-c3ccc(C#N)cc3)n1)CCCNC2 (stereo not shown) [Example 7, 4-[2-(2-Methyl-piperidin-1-yl)-6,7,8,9-tetrahydro-5H-pyrimido[4,5-c]azepin-4-yl]-benzonitrile]",1240,> 10000,3200,280,400
"CCN(CC)c1nc2c(c(-c3ccsc3)n1)CCNCC2 [Example 12, Diethyl-(4-thiophen-3-yl-6,7,8,9-tetrahydro-5H-pyrimido[4,5-d]azepin-2-yl)-amine hydrochloride]",80,40,50,3.2,30
"CC(C)N(c1nc2c(c(-c3ccc(F)cc3)n1)CNCC2)C(C)C [Example 43, [4-(4-Fluoro-phenyl)-5,6,7,8-tetrahydro-pyrido[4,3-d]pyrimidin-2-yl]-diisopropyl-amine hydrochloride]",195,320,150,100,3
"CCN(CC)c1nc2c(c(-c3ccc(F)cc3)n1)CCNC2 [Example 24, Diethyl-[4-(4-fluoro-phenyl)-5,6,7,8-tetrahydro-pyrido[3,4-d]pyrimidin-2-yl]-amine]",933,50,120,7,3
"CCN(CC)c1nc2c(c(-c3ccc(C#N)cc3)n1)CCNCC2 [Example 14, 4-(2-Diethylamino-6,7,8,9-tetrahydro-5H-pyrimido[4,5-d]azepin-4-yl)-benzonitrile hydrochloride]",220,63,130,5,40
"Cc1ccc(-c2nc(N(C)C)nc3c2CNCC3)cc1 [Example 61, Dimethyl-(4-p-tolyl-5,6,7,8-tetrahydro-pyrido[4,3-d]pyrimidin-2-yl)-amine]",2290,9000,5000,620,420
"C[C@H]1COCCN1c1nc2c(c(-c3ccc(F)cc3)n1)CNCC2 [Example 45, 4-(4-Fluoro-phenyl)-2-(3-methyl-morpholin-4-yl)-5,6,7,8-tetrahydro-pyrido[4,3-d]pyrimidine]",3390,> 10000,2500,1200,24
"Cc1ccc(-c2nc(N3CCCCC3)nc3c2CNCC3)cc1 [Example 50, 2-Piperidin-1-yl-4-p-tolyl-5,6,7,8-tetrahydro-pyrido[4,3-d]pyrimidine]",776,350,130,160,30
"Cc1ccc(-c2nc(N3CCOCC3)nc3c2CNCC3)cc1 [Example 49, 2-Morpholin-4-yl-4-p-tolyl-5,6,7,8-tetrahydro-pyrido[4,3-d]pyrimidine]",2090,530,630,5010,100
"Cc1ccc(-c2nc(N3CCCCC3C)nc3c2CCCNC3)cc1 (stereo not shown) [Example 8, 2-(2-Methyl-piperidin-1-yl)-4-p-tolyl-6,7,8,9-tetrahydro-5H-pyrimido[4,5-c]azepine]",68,500,2000,100,180
"Cc1ccc(-c2nc(NCc3ccccc3)nc3c2CNCC3)cc1 [Example 51, Benzyl-(4-p-tolyl-5,6,7,8-tetrahydro-pyrido[4,3-d]pyrimidin-2-yl)-amine]",912,320,100,700,75
"CCN(CC)c1nc2c(c(-c3ccc(OC)cc3)n1)CCCNC2 [Example 3, Diethyl-[4-(4-methoxy-phenyl)-6,7,8,9-tetrahydro-5H-pyrimido[4,5-c]azepin-2-yl]-amine]",160,240,400,20,200
"CCN(CC)c1nc2c(c(-c3ccc(C)cc3)n1)CCNCC2 [Example 11, Diethyl-(4-p-tolyl-6,7,8,9-tetrahydro-5H-pyrimido[4,5-d]azepin-2-yl)-amine hydrochloride]",25,40,63,5,4
